Legend:
[1] = Stability in PB (0.2 M) buffer at 37° C., quantified by LC-MS; assay type: physicochemical; details: for Remaining fraction T/T0: 37° C.
Protocol: The system was placed in a constant temperature system of 37° C. […] The system was placed in a constant temperature system of 37° C.; • 4) 40 μL of sample was respectively taken at 0 h, 2 h, 4 h, 6 h, 24 h, and 48 h, added with 120 μL of acetonitrile, and centrifuged. The supernatant was taken for quantitative determination by LC-MS. • 5) Results processing.
The concentration at T=0 h in LC-MS was used as the reference, and the data were calculated by T/T0*100%. The results are shown in Table 3 and Table 4, respectively.

[2] = tested on: non-small cell lung cancer; details: non-small cell lung cancer after failed chemotherapy, targeting therapy and PD-1 treatment; cited from earlier work
[3] = tested on: triple-negative breast cancer; details: clinical phase II; cited from earlier work
[4] = tested on: small cell lung cancer; details: small cell lung cancer in which multiple treatments had failed; cited from earlier work

| Molecule | decomposed ([1]; alkaline conditions, at 24 h) [%] | decomposed ([1]; neutral conditions, at 6 h) [%] | decomposed ([1]; neutral conditions, at 24 h) [%] | Remaining fraction T/T0 ([1]; pH = 6, 0 h, 60 μg/mL) | Remaining fraction T/T0 ([1]; pH = 6, 2 h, 60 μg/mL) | Remaining fraction T/T0 ([1]; pH = 6, 4 h, 60 μg/mL) | Remaining fraction T/T0 ([1]; pH = 6, 6 h, 60 μg/mL) | Remaining fraction T/T0 ([1]; pH = 6, 24 h, 60 μg/mL) | Remaining fraction T/T0 ([1]; pH = 6, 48 h, 60 μg/mL) | Remaining fraction T/T0 ([1]; pH = 7, 0 h) | Remaining fraction T/T0 ([1]; pH = 7, 2 h) | Remaining fraction T/T0 ([1]; pH = 7, 4 h) | Remaining fraction T/T0 ([1]; pH = 7, 6 h) | Remaining fraction T/T0 ([1]; pH = 7, 24 h) | Remaining fraction T/T0 ([1]; pH = 7, 48 h) | Remaining fraction T/T0 ([1]; pH = 8, 0 h) | Remaining fraction T/T0 ([1]; pH = 8, 2 h) | Remaining fraction T/T0 ([1]; pH = 8, 4 h) | Remaining fraction T/T0 ([1]; pH = 8, 6 h) | Remaining fraction T/T0 ([1]; pH = 8, 24 h) | other results |
| --- | --- | --- | --- | --- | --- | --- | --- | --- | --- | --- | --- | --- | --- | --- | --- | --- | --- | --- | --- | --- | --- |
| CCc1c2c(nc3ccc(O)cc13)-c1cc3c(c(=O)n1C2)COC(=O)[C@@]3(CC)OC(=O)OCc1ccc(NC(=O)[C@@H](CCCCN)NC(=O)COCC(=O)NCCOCCOCCOCCOCCOCCOCCOCCOCCn2cc(CNC(=O)C3CCC(CN4C(=O)C=CC4=O)CC3)nn2)cc1 (stereo partly drawn) [CL2A-SN38] | 98 | 43 | 98 | 1 | 0.7479 | 0.6471 | 0.413 | 0.03593 | 0.02024 | 1 | 0.7038 | 0.5851 | 0.5715 | 0.02261 | 0.01906 | 1 | 0.6287 | 0.4347 | 0.3844 | 0.02532 | Remaining fraction T/T0 ([1]; pH = 8, 48 h): 0.01928; decomposed ([1]; pH of 6, after 48 h): 98.0%; decomposed ([1]; pH of 7, after 48 h): 98.1%; decomposed ([1]; pH of 8, after 48 h): 98.1% |
| CCc1c2c(nc3ccc(OC(=O)N(CCOCCOC(=O)N(C)CCN(C)C)CCN(C)C(=O)OCc4ccc(NC(=O)[C@H](CCCNC(N)=O)NC(=O)[C@@H](NC(=O)CCCCCN5C(=O)C=CC5=O)C(C)C)cc4)cc13)-c1cc3c(c(=O)n1C2)COC(=O)[C@]3(O)CC [Compound of formula (1), maleimidohexanoic acid-L-valyl-L-citrulline-p-aminobenzyl-(N-methylethyldiethoxy-N,N,N-trimethylethylenediami ne)-camptothecin] | 97 | 18 | 75 | 1 | 0.9886 | 0.9761 | 0.9208 | 0.8682 | 0.7886 | 1 | 0.8789 | 0.8018 | 0.8219 | 0.2567 | 0.1222 | 1 | 0.5641 | 0.2841 | 0.1234 | 0.009607 | Remaining fraction T/T0 ([1]; pH = 8, 48 h): 0.01256; decomposed ([1]; pH of 6, after 48 h): 21.2%; decomposed ([1]; pH of 7, after 48 h): 87.8%; decomposed ([1]; pH of 8, after 48 h): 98.7%; Stability compared with CL2A-SN38 ([1]; weak acidic conditions): more stable than CL2A-SN38; Stability compared with CL2A-SN38 ([1]; weak acidic or neutral conditions): higher stability |
| Sacituzumab govitecan |  |  |  |  |  |  |  |  |  |  |  |  |  |  |  |  |  |  |  |  | control rate [2]: up to 43%; effective rate [3]: 30%; tumor shrinkage, share of patients [3]: 69.5%; tumor shrinkage, share of patients [4]: 60% |

From US20240408226A1, “ANTIBODY DRUG CONJUGATE INTERMEDIATE CONTAINING SN38 AND ITS PREPARATION METHOD” (priority 2021, published 2024)
